Results on 20 compounds are retold here after publication PMC9310613, “Selenocarbamates As a Prodrug‐Based Approach to Carbonic Anhydrase Inhibition” (Chemmedchem, 2022).

SMILES strings stand for the structures. Read-outs that look alike come from different tables or passages of the source.

What all share (experiment): stopped-flow CO2 hydration assay
What all share (format): biochemical

Experiment [1] has as its target T1, hCA I (Homo sapiens, UniProt P00915).
T1 construct: gene CA1; recombinant, obtained in house
An excerpt: stopped-flow CO2 hydration assay on hCA I

Experiment [2] concerns the target T2, hCA II (Homo sapiens, UniProt P00918).
T2 construct: gene CA2; recombinant, obtained in house
An excerpt:
stopped-flow CO2 hydration assay on hCA II

In experiment [3] the target is T2, hCA II. The following applies: read-out: hCA I.

T1 sequence (P00915 2-261): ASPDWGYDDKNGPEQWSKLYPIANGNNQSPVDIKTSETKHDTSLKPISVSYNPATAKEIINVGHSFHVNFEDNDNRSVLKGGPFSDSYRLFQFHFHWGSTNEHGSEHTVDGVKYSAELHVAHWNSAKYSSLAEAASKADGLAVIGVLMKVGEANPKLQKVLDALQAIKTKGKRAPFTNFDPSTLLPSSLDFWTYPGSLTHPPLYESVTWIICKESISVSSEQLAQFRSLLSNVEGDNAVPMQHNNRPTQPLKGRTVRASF

Consider `CCCCCCCCCCCC[Se]C(N)=O` [3n, 3 n], for which the Ki amounted to 90.3 µM in experiment [1] and 85.2 µM in experiment [2].

Consider `O=C(Nc1ccc(Cl)cc1)[Se]c1ccccc1` [3g, 3 g], for which the values for the Ki in experiment [1] and in experiment [2] were 42.5 µM and 13.1 µM, respectively.

Take `Cc1ccc(S(=O)(=O)N[C@@H](C)C[Se]C(=O)Nc2cc(C)cc(C)c2)cc1` [3u, 3 u]: the Ki in experiment [1] and in experiment [3] was over 100 µM in each case.

Turning to `O=C(Nc1ccccc1F)[Se]c1ccccc1` [3e, 3 e], the figures for the Ki in experiment [1] and in experiment [2] were 30.8 µM and 9.2 µM, respectively.

`C=CCOCC(O)C[Se]C(=O)Nc1cc(C)cc(C)c1` (racemic) [3q, 3 q]: the values for the Ki in experiment [1] and in experiment [2] were 67.5 µM and 79.3 µM, respectively.

Take `Cc1ccc(NC(=O)[Se]c2ccccc2)cc1` [3c, 3 c]: the Ki in experiment [1] worked out at 25.9 µM; in experiment [2], 8.4 µM.

`O=C(NCc1ccco1)[Se][C@@H]1CCCC[C@H]1O` (relative stereo) [3t, 3 t]: the Ki in experiment [1] stood at 67.4 µM; in experiment [2], 83.4 µM.

For `CCCCCCCCCCCC[Se]C(=O)Nc1ccc(Br)cc1` [3m, 3 m], the Ki is 92.1 µM in experiment [1] and 87.4 µM in experiment [2].

In the case of `O=C(Nc1ccccc1)[Se]c1ccccc1` [3b, 3 b], the Ki in experiment [1] came out at 40.4 µM; in experiment [2], 4.1 µM.

In the case of `Cc1cc(C)cc(NC(=O)[Se][C@@H]2CCCC[C@H]2O)c1` (relative stereo) [3s, 3 s], the Ki in experiment [1] was 74.3 µM; in experiment [2], 84.6 µM.

Consider `O=C(Nc1ccc(Br)cc1)[Se]c1ccccc1` [3h, 3 h], for which the values for the Ki in experiment [1] and in experiment [2] were 13.8 µM and 8.6 µM, respectively.

With `O=C(NCc1ccco1)[Se]c1ccccc1` [3i, 3 i], the values for the Ki in experiment [1] and in experiment [2] were 8.8 µM and 40.4 µM, respectively.

As to `Cc1cc(C)cc(NC(=O)[Se]c2ccccc2)c1` [3a, 3 a], the Ki in experiment [1] was found to be 49.5 µM; in experiment [2] it was 5.3 µM.

Consider `CC(C)OCC(O)C[Se]C(=O)NC12CC3CC(CC(C3)C1)C2` (racemic) [3r, 3 r], for which the Ki in experiment [1] turned out to be 92.7 µM; in experiment [2], 79.4 µM.

Consider `O=C(Nc1ccc(F)cc1)[Se]c1ccccc1` [3f, 3 f], for which the Ki in experiment [1] turned out to be 15.3 µM; in experiment [2], 9.4 µM.

For `COc1cccc(NC(=O)[Se]c2ccccc2)c1` [3d, 3 d], the Ki turned out to be 49.3 µM in experiment [1] and 7.9 µM in experiment [2].

As for `NC(=O)[Se]c1ccccc1` [3j, 1‐(phenylselanyl)formamide], the Ki worked out at 9.8 µM in experiment [1] and 6.8 µM in experiment [2].

As for `Cc1ccc([Se]C(=O)Nc2ccc(Br)cc2)cc1` [3k, 3 k], the results for the Ki in experiment [1] and in experiment [2] were 38.6 µM and 11.6 µM, respectively.

Consider `O=C(Nc1ccc(Br)cc1)[Se]Cc1ccccc1` [3p, 3 p], for which the Ki is 85 µM in experiment [1] and 39.9 µM in experiment [2].

On to `Cc1ccccc1[Se]C(=O)Nc1ccc(Br)cc1` [3l, 3 l], for which the Ki in experiment [1] is 13.4 µM; in experiment [2] it was 8 µM.
